Test results reported in patent publication US6602519B1, “Oxidized thymosin β4” (The University Court of the University of Glasgow, priority 1998, dated 2003).
Entries after “also recorded” stand apart in the source; their conditions may differ.

Experiments:
[1] = system: Human umbilical vein endothelial cells (HUVEC); assay: Scratch wound assay (endothelial sheet wound closure); format: cell-based
Procedure: Scratch wound assay: Human umbilical vein endothelial cells (HUVEC) were grown to confluency in multiwell dishes (Corning) and a scratch made across the diameter of each well with a sterile pipette tip. The resulting wound (approx. 1 mm) was then measured before the addition of Tβ4 or Tβ4so and at 45 min intervals.

[2] = system: fMLP-induced chemotaxis of human neutrophils; assay: Chemotaxis assay (modified Boyden chamber); format: cell-based; conditions: for chemotactic activity of the substance itself: Boyden chamber; for inhibition of chemotaxis to fMLP: substance in upper chamber, fMLP in lower chamber
Procedure: Filters (Sartorius membrane filter 3 μm pore) were cut and glued to a modified iml syringe barrel. 300 μl of 2×10^6/ml neutrophils were added to 300 μl antagonist and 200 μl of the suspension was added to the upper chamber (syringe barrel). The lower chamber (a 5 ml beaker), contained 3.6 ml of agonist. After 45 minutes, the cells were fixed in 70% ethanol for 5 minutes. This procedure also removes the filter from the syringe barrel by dissolving the glue. The filters were placed in a multi-well dish and treated as follows: distilled water for 2 minutes, Harris haematoxylin 1 minute, distilled water 1 min, Scotts Tap water (1:1 0.7% sodium bicarbonate:4% Magnesium sulphate (v/v) for 5 minutes, 70% ethanol 3 mins, 95% ethanol 3 minutes and 80%:20% ethanol:butanol (v/v) 5 minutes. The filters were cleared in xylene for 5 minutes, mounted in DEPEX and examined under bright field illumination with a 40× objective. Five randomly selected fields were counted for each filter.

human neutrophils = assay: Cell tracking assay (neutrophil locomotion); format: cell-based; conditions: uniform concentration
Procedure: Neutrophils were obtained as described by Chettibi et al. [1993]. Briefly, whole blood was mixed with 1:10 v/v of 5% dextran and allowed to sediment at 37° C. for 1 hour. The leucocyte rich plasma was layered over Nycoprep 1.077 and centrifuged at 750 g for 15 minutes. Erythrocytes in the resulting pellet were removed by hypotonic lysis and neutrophils were washed twice with balanced salt solution (BSS). The cells were checked for viability by trypan blue exclusion (generally greater than 96% viable).
Automated cell-tracking migration chambers were made as previously described [Chettibi et al., 1993] and placed on the stage of an inverted phase-contrast microscope within a temperature controlled (37° C.) transparent box and locomotion observed by means of a video camera connected to a monochrome monitor and also to an Acorn A5000 computer with a Watford video digitiser programmed to capture and analyze one frame every 5 seconds. Data was obtained from a maximum of 80 selected cells and used to calculate instantaneous speed, the 2-dimensional diffusion coefficient and the locomotion persistence time, using the described procedure to eliminate the contribution of systematic drift [Chettibi et al., 1994].

[3] = system: carrageenan-induced footpad swelling; assay: Carrageenan induced oedema test; format: in vivo, BALB/c mice; conditions: for reduction of carrageenan-induced oedema: 800 ng doses
Procedure: Induction of Inflammatory Response to Carrageenin: Groups of mice were injected subcutaneously in one hind paw with 300 μg carrageenin mixed the thymosin β4, native or sulphoxide in a final volume of 50 μl. Control animals were injected with the same volume of saline. Footpad swelling was measured using a spring-dial calliper, and expressed as the difference in swelling between the carrageenin-injected paw and the uninjected, contralateral paw. The animals were injected intraperitoneally (i.p.) With the same dose of thymosin β4, native or sulphoxide and footpad measurements made at 6, 24, 48 and 72 hours.

G-actin = conditions: high salt conditions; cited from earlier work

Substance | wound healing (closure rate of scratch on endothelial monolayer) [1] | chemotactic activity of the substance itself [2] | inhibition of chemotaxis to fMLP [2] | dispersive locomotion of neutrophils (human neutrophils) | reduction of carrageenan-induced oedema [3] | suppression of footpad swelling ([3]; 1000 ng dose) | potency in wound closure relative to native peptide ([1]; oxidised versus native peptide) | potency of inhibition of chemotaxis relative to native Tβ4 ([2]; oxidised versus native peptide) | suppression of footpad swelling ([3]; 10 ng dose) | suppression of footpad swelling ([3]; 100 ng dose) | suppression of footpad swelling ([3]; administration 30 minutes prior to, during and 6 hours after carrageenan, evident after 6 h, sustained up to 24 hours) | concentration needed to inhibit actin polymerisation relative to thymosin β4 (G-actin) [fold]
thymosin β4 (SDKPDMAEIEKFDKSKLKKTETQEKNPLPSKETIEQEKQAGES; UniProt P62328 2-44, looked up) [Tβ4, native, non-oxidised thymosin β4 prepared from human neutrophils by HPLC, reference compound] | promotes would healing | neither was chemotactic | both inhibited | did not give significant dispersive locomotion | only the oxidised peptide significantly reduced | ineffective | – | – | – | – | – | –
oxidised thymosin β4 [Tβ4so] | promotes would healing | neither was chemotactic | both inhibited | dispersive at low concentrations | significantly reduced | – | at least an order of magnitude higher potency | an order of magnitude more potent; also recorded: tenfold more inhibitory | ineffective | ineffective | significant suppression of swelling | 20
